Experimental data published in US20210046106A1, “METHODS OF TREATING CANCER WITH ANDROGEN DEPRIVATION THERAPY IN COMBINATION WITH AN INHIBITOR OF THE SP1 TRANSCRIPTION FACTOR” (The Board of Trustees of the Leland Stanford Junior …, priority 2019, published 2021).

Legend:
[1] = system: breast and ovarian cancer cell lines; details: 2 mg/kg, subcutaneous injection; cited from earlier work
[2] = Phase 1 trial: population PK model (NONMEM, 1-compartment, oral absorption) and simulations; details: human, in vivo
[3] = SECAR study, cited from earlier work
PSA = test: Phase 1 trial: PSA in the subset of patients with prostate cancer; type: in vivo, human
Excerpt: There was no evidence of a selenite dose response relationship, but patient numbers were too small and the patients too heterogeneous to draw a definitive conclusion about the presence or absence of a dose response relationship. Of note, patients were maintained on whatever ADT they were on before study entry, as discontinuation of ADT could have been even more of a confounding variable.

[4] = system: tumor in irradiated field; test: Phase 1 trial: tumor response in irradiated field (imaging); type: in vivo, human; set-up: key: CR resolution of uptake; PR decrease in extent of involvement (# and size of lesion ≥ 50% observed); SD same extent of involvement (# and size of lesions)
Excerpt: All but one patient received palliative radiation therapy to symptomatic bone metastases. Quantitation of response in bone is difficult and imprecise. Furthermore, patients were imaged as per standard of care, using a variety of imaging modalities, including bone scan, which is not applicable to RECIST scoring. […] There was no apparent dose response relationship.

prostate cancer tumors = test: Preclinical: growth of well-established prostate cancer tumors in mice; details: i.p. and p.o.
GI epithelium = test: Preclinical: radiosensitization of normal GI epithelium; details: preclinical studies

O=[Se](O)O [sodium selenite, Sodium selenite pentahydrate]
effects on the host [1]: without apparent ill effects on the host | Tmax ([2]; both): 4.05 h | AUC ([2]; both, 1100 mcg): 6160 ng·h/mL | Cmax ([2]; both, 1100 mcg): 301 ng/mL | AUC ([2]; both, 5500 mcg): 3630 ng·h/mL | Cmax ([2]; both, 5500 mcg): 215 ng/mL | Tmax ([2]; both, 5500 mcg): 3.65 h | AUC ([2]; both, 16500 mcg): 8280 ng·h/mL | Cmax ([2]; both, 16500 mcg): 366 ng/mL | Tmax ([2]; both, 16500 mcg): 4.15 h | AUC ([2]; both, 33000 mcg): 13300 ng·h/mL | Cmax ([2]; both, 33000 mcg): 496 ng/mL | Tmax ([2]; both, 33000 mcg): 4.35 h | AUC ([2]; both, 49500 mcg): 17000 ng·h/mL | Cmax ([2]; both, 49500 mcg): 593 ng/mL | Tmax ([2]; both, 49500 mcg): 4.4 h | half-life ([2]; half-life, simple formulation used in phase 1 trial): ~19 h | AUC ([2]; po, 5.5 mg): 3700 ng·h/mL | Cmax ([2]; po, 5.5 mg): 214 ng/mL | AUC ([2]; po, 11 mg): 6250 ng·h/mL | Cmax ([2]; po, 11 mg): 301 ng/mL | AUC ([2]; po, 16.5 mg): 8360 ng·h/mL | Cmax ([2]; po, 16.5 mg): 366 ng/mL | AUC ([2]; po, 33 mg): 13300 ng·h/mL | Cmax ([2]; po, 33 mg): 497 ng/mL | AUC ([2]; po, 49.5 mg): 16900 ng·h/mL | Cmax ([2]; po, 49.5 mg): 595 ng/mL | half-life ([2]; po, half-life calculated from population PK model, patients with metastatic cancer): ~18.5 h | MTD ([3]; i.v. daily for 5 consecutive days for 2 or 4 weeks, 34 patients): 10.2 mg/m^2 | most common side effects ([3]; i.v.): fatigue, nausea and cramps in fingers and legs | PSA % Change (PSA; patient 2, 5.5 mg cohort, FU visit 2 M vs Day 1): −77.9% | PSA Value FU (PSA; patient 2, 5.5 mg cohort, FU visit 2 M, Day 1 PSA 39.83): 8.79 ng/mL | PSA % Change (PSA; patient 3, 5.5 mg cohort, FU visit 2.25 M vs Day 1): 6.2% | PSA Value FU (PSA; patient 3, 5.5 mg cohort, FU visit 2.25 M, Day 1 PSA 225): 239 ng/mL | PSA % Change (PSA; patient 4, 11 mg cohort, FU visit 3.25 M vs Day 1): −72.9% | PSA Value FU (PSA; patient 4, 11 mg cohort, FU visit 3.25 M, Day 1 PSA 131.83): 35.77 ng/mL | PSA % Change (PSA; patient 5, 11 mg cohort, FU visit 4 M vs Day 1): −52.6% | PSA Value FU (PSA; patient 5, 11 mg cohort, FU visit 4 M, Day 1 PSA 40.61): 19.25 ng/mL | PSA % Change (PSA; patient 6, 11 mg cohort, FU visit 4 M vs Day 1): −67.3% | PSA Value FU (PSA; patient 6, 11 mg cohort, FU visit 4 M, Day 1 PSA 0.98): 0.32 ng/mL | PSA % Change (PSA; patient 7, 16.5 mg cohort, FU visit 2.25 M vs Day 1): 1155.7% | PSA Value FU (PSA; patient 7, 16.5 mg cohort, FU visit 2.25 M, Day 1 PSA 1.74): 21.85 ng/mL | PSA % Change (PSA; patient 8, 16.5 mg cohort, FU visit 2.75 M vs Day 1): −59.4% | PSA Value FU (PSA; patient 8, 16.5 mg cohort, FU visit 2.75 M, Day 1 PSA 3.3): 1.34 ng/mL | PSA % Change (PSA; patient 9, 16.5 mg cohort, FU visit 3.25 M vs Day 1): −11% | PSA Value FU (PSA; patient 9, 16.5 mg cohort, FU visit 3.25 M, Day 1 PSA 1): 0.89 ng/mL | PSA % Change (PSA; patient 10, 33 mg cohort, FU visit 3 M vs Day 1): −67.1% | PSA Value FU (PSA; patient 10, 33 mg cohort, FU visit 3 M, Day 1 PSA 196): 64.46 ng/mL | decrease in PSA, range (PSA; the seven of nine prostate cancer patients with a decrease, first follow up 2-4 months after RT): 11-78% | Tumor Response in Irradiated Field ([4]; patient 2 (prostate, 5.5 mg), Field 1, bone, BS 2 mo.): CR | Tumor Response in Irradiated Field ([4]; patient 2 (prostate, 5.5 mg), Field 2, bone, BS 2 mo.): PR (PR decrease in extent of involvement (# and size of lesion ≥ 50% observed)) | Tumor Response in Irradiated Field ([4]; patient 3 (prostate, 5.5 mg), bone, BS 1 mo.): SD | Tumor Response in Irradiated Field ([4]; patient 4 (prostate, 11 mg), bone, BS 1 mo.): CR | Tumor Response in Irradiated Field ([4]; patient 5 (prostate, 11 mg), bone, BS 3 mo., ↓ intensity of uptake): SD ( ↓ Intensity of uptake) | Tumor Response in Irradiated Field ([4]; patient 6 (prostate, 11 mg), bone, BS 5 mo., change from diffuse to patch involvement): PR (Change from diffuse to patch involvement (PR decrease in extent of involvement (# and size of lesion ≥ 50% observed)) | Tumor Response in Irradiated Field ([4]; patient 7 (prostate, 16.5 mg), bone, BS 1 mo., ↓ intensity of uptake): SD (↓ intensity of uptake) | Tumor Response in Irradiated Field ([4]; patient 8 (prostate, 16.5 mg), bone, MRI 2 mo.): SD | Tumor Response in Irradiated Field ([4]; patient 9 (prostate, 16.5 mg), bone, CT and MRI 3 mo.): SD | Tumor Response in Irradiated Field ([4]; patient 10 (prostate, 33 mg), Field 1, bone, CT 4 mo.): PD (PD ≥ 20% ↑ sum of diameters) | Tumor Response in Irradiated Field ([4]; patient 10 (prostate, 33 mg), Field 2, bone, CT 4 mo.): SD | Tumor Response in Irradiated Field ([4]; patient 11 (multiple myeloma, 33 mg), bone, PET-CT 6 mo., almost complete metabolic resolution): PR (almost complete metabolic resolution) (PR ≥ 30% ↓ sum of diameters) | Tumor Response in Irradiated Field ([4]; patient 12 (MPNST, 33 mg), lymph node, CT 1 mo.): SD | Tumor Response in Irradiated Field ([4]; patient 13 (NSCLC, 33 mg), bone, CT, MRI and PET-CT 1 mo.): PD (PD ≥ 20% ↑ sum of diameters) | Tumor Response in Irradiated Field ([4]; patient 15 (NSCLC, 49.5 mg), bone, BS 2 mo.): SD | toxicity at the growth-inhibiting doses (prostate cancer tumors): no detectable toxicity | sensitization of GI epithelium to radiation (GI epithelium): did not sensitize GI epithelium to radiation
